Source: US4888335A, “3-alkoxy-2-aminopropyl heterocyclic amines and their use as cardiovascular agents” (McNeilab, Inc., priority 1988, dated 1989)
Counter-ions that a name gives are not always drawn.

Experiments:
[1] = system: spontaneously hypertensive rats (mean arterial pressure); assay: Spontaneously Hypertensive Rat (SHR) test, fall in mean arterial pressure; format: in vivo; conditions: active if fall >15 mm of Hg
Description: The activity of compounds of formula (I) for the treatment of hypertension was determined using the Spontaneously Hypertensive Rat (SHR) test as described below. Spontaneously Hypertensive Rat Test In this test, the arterial pressure of adult spontaneously hypertensive rats (Charles River) is monitored directly via an aortic cannula. The SH rats are anesthetized with an inhalation anesthetic (ether). The left carotoid artery is isolated and cannulated. The tip of the cannula is advanced to the aorta and the cannula is exteriorized behind the neck at the level of the scapula. Animals are placed in individual cages, allowed to recover from the anesthetic and are kept unrestrained. The arterial cannula is connected to a pressure transducer which is attached to a recorder. The test compounds are administered to at least 3 rats at doses selected in the range of 0.1 to 100 mg/kg of body weight by i.p. or p.o. routes of administration. The arterial pressure and heart rate are monitored for a minimum of 24 hr. A test compound is considered to be active as an antihypertensive agent if the mean arterial pressure (MAP) indicates a fall (δMAP) of >15 mm of Hg. Each animal serves as its own control.

[2] = system: Langendorff's isolated heart (coronary flow); assay: Langendorff isolated heart (increase in coronary flow); conditions: tested at 30.0 to 0.01 micromolar
Description: In addition to their utility in the treatment of hypertension, the compounds of formula (I) are useful in the treatment of the symptoms of angina pectoris by virtue of their ability to dilate coronary arteries. Their activity was measured using the "Langendorff's isolated heart" preparation. This test has been described in "Pharmacological Experiments on Isolated Preparations", Staff of the Department of Pharmacology, University of Edinbourgh, 2nd Ed., Churchill Livingstone, N.Y., 1970, pp 112-119. The test compounds were administered at concentrations of 30.0, 10.0, 3.0, 1.0, 0.3, 0.1, 0.03 and 0.01 micromolar (10^-6 molar). The minimum concentration EC30) needed to elicit a 30% increase in coronary flow is shown in Table I for compounds of formula (I).

Compound	SHR δMAP (change in mean arterial pressure) ([1]; 10 mg/kg i.p.)	SHR δMAP (change in mean arterial pressure) ([1]; 30 mg/kg i.p.)	Langendorff EC30 (minimum concentration needed to elicit a 30% increase in coronary flow) [2]	SHR δMAP (change in mean arterial pressure) ([1]; 30 mg/kg p.o.)
CC(C)COCC(CN1Cc2ccccc2Cc2ccccc21)N1CCCC1 (centres unmarked) [Example 1, 5,6-Dihydro-5-[3-(2-methylpropoxy)-2-(1-pyrrolidinyl)-propyl]-11H -dibenz[b,e]azepine]	-37 mm of Hg	-65 mm of Hg	.013 10^-6 M	–
CC(C)COCC(CN1Cc2ccccc2CCc2ccccc21)N1CCCC1 (stereo not drawn) [Example 2b, 5,6,11,12-Tetrahydro-5-beta-[3-(2-methylpropoxy)-2-(1-pyrrolidinyl)propyl]dibenz[b,f]azocine Hydrate (5:1)]	–	–	.150 10^-6 M	-25 mm of Hg
CC(C)(C)COCC(CN1Cc2ccccc2Cc2ccccc21)N1CCCC1.O=C(O)/C=C/C(=O)O (centres unmarked) [Example 3c, 5,6-Dihydro-5-[3-(2,2-dimethylpropoxy)-2-(1-pyrrolidinyl)propyl]-11H-dibenz[b,e]azepine (E)-2-Butenedioate]	-54 mm of Hg	–	.004 10^-6 M	-2 mm of Hg
CC(C)COCC(CN1c2ccccc2CCc2ccccc21)N1CCCC1 (centres unmarked) [Example 4, 10,11-dihydro-5-[3-(2-methylpropoxy)-2-(1-pyrrolidinyl)propyl]-5H-dibenz[b,f]azepine]	-65 mm of Hg	–	.011 10^-6 M	–
CC(C)(C)COCC(CN1Cc2ccccc2Oc2ccccc21)N1CCCC1.O=C(O)/C=C/C(=O)O (centres unmarked) [Example 5b, 10,11-Dihydro-10-[3-(2,2-dimethylpropoxy)-2-(1-pyrrolidinyl)propyl]dibenz[b,f][1,4]oxazepine (E)-2-Butenedioate]	-70 mm of Hg	–	.04 10^-6 M	-20 mm of Hg
CC(C)(C)COCC(CN1c2ccccc2C=Cc2ccccc21)N1CCCC1 (centres unmarked) [Example 6, 5-[3-(2,2 Dimethylpropxy)-2-(1-pyrrolidinyl)propyl]-5H-dibenz[b,f]azepine Hydrochloride]	-27 mm of Hg	–	.001 10^-6 M	–
CC1(COCC(CN2c3ccccc3Oc3ccccc32)N2CCCC2)CCCCC1.Cl (centres unmarked) [Example 7d, 10-[3-[(1-Methylcyclohexyl)methoxy]-2-(1-pyrrolidinyl)-propyl]-10H-phenoxazine Hydrochloride (1:1)]	–	–	.012 10^-6 M	-24 mm of Hg
CC1(COCC(CN2c3ccccc3C=Cc3ccccc32)N2CCCC2)CCCCC1 (centres unmarked) [Example 8, 5-[3-[(1-methylcyclohexyl)methoxy]-2-(1-pyrrolidinyl)propyl]-5H-dibenz[b,f]azepine]	–	–	.0037 10^-6 M	-12 mm of Hg
CC(C)COCC(CN1c2ccccc2Sc2ccccc21)N1CCCC1 (centres unmarked) [Example 9, 10-[3-(2-Methylpropoxy)-2-(1-pyrrolidinyl)propyl]-10H-phenothiazine]	-22 mm of Hg	–	.30 10^-6 M	-19 mm of Hg
C=C(C)COCC(CN1c2ccccc2C=Cc2ccccc21)N1CCCC1 (centres unmarked) [Example 10, 5-[3-(2-methyl-2-propenoxy)-2-(1-pyrrolidinyl)propyl]-5H-dibenz[b,f]azepine]	–	–	–	-25 mm of Hg
